Laboratory results taken from patent US8735569B2, “Nucleoside phosphoramidates” (Gilead Pharmasset LLC, priority 2009, dated 2014).
≈ marks a conversion by molar mass, not a printed value.

Tests used:
[1] = Storage stability of crystalline form in a sealed container; assay type: physicochemical
Excerpt: First, by allowing fine crystals of Form 1 to be exposed to atmospheric humidity for several days, a monohydrate of Form 1 is produced with an appearance of a solidified gum. After grinding the monohydrate solid to a fine powder, the XRPD pattern remains consistent with Form 1. Upon standing in an open vessel for 6-10 weeks, the ground material slowly changes to Form 6 as an anhydrous solid. Form 1 is stable for at least 2 years in a sealed container.

[2] = Gravimetric vapour sorption (GVS); assay type: physicochemical; conditions: 25° C.
Protocol: Sorption isotherms were obtained using a SMS DVS Intrinsic moisture sorption analyzer, controlled by SMS Analysis Suite software. The sample temperature was maintained at 25° C. by the instrument controls. The humidity was controlled by mixing streams of dry and wet nitrogen, with a total flow rate of 200 ml·min^−1. The relative humidity was measured by a calibrated Rotronic probe (dynamic range of 1.0-100% RH), located near the sample. The weight change, (mass relaxation) of the sample as a function of % RH was constantly monitored by the microbalance (accuracy ±0.005 mg).
Typically 5-20 mg of sample was placed in a tared mesh stainless steel basket under ambient conditions. The sample was loaded and unloaded at 40% RH and 25° C. (typical room conditions). A moisture sorption isotherm was performed as outlined below (2 scans giving 1 complete cycle). The standard isotherm was performed at 25° C. at 10% RH intervals over a 0.5-90% RH range.
The sample was recovered after completion of the isotherm and re-analyzed by XRPD.
A sample of SP-4 was ground with a pestle and mortar, and then successively passed through 500 and 250 μm sieves to yield the sample as a fine powder that was then analyzed using a modified single cycle method. The sample was taken from 40% RH (approximately ambient) to 60% RH, instead of 90% for the standard method, and then cycled to 0% and back to 40% RH.

[3] = system: hepatitis C virus, genotypes 1-4; assay: Genotype coverage
[4] = Stability at elevated temperatures and relative humidity; assay type: physicochemical
Protocol: A sample of RP-4 was stored in a humidity chamber at 40° C. and 75% relative humidity for one week, and the sample was reanalyzed by XRPD. […] This should be contrasted to a sample of 4, which deliquesced within about 16 hours upon storage at 40° C. and 75% relative humidity. Indeed, an illustration of the deliquescent nature of 4 is illustrated by the following. A sample of 4 was passed through a 250 μm sieve then samples were stored at 40° C./75% RH and 25° C./53% relative humidity and visual observations were taken at regular intervals.
Upon storage at 40° C. and 75% relative humidity a sample of SP-4 deliquesced inside 16 hours. For instance, a sample of SP-4 was ground with a pestle and mortar, and then successively passed through 500 and 250 μm sieves to yield the sample as a fine powder. Samples of this material were stored at 40° C. and 75% relative humidity and 25° C. and 53% RH and visual observations were taken at regular intervals.

HCV replication = assay: HCV replicon assay (firefly luciferase reporter); assay type: cell-based, hepatitis C virus; conditions: replicon containing cells, 4 days incubation, Bright-Glo firefly luciferase reporter
Protocol: Replicon containing cells were seeded at either 3,000 cells/well (50 μL) in 96-well white/opaque plates, or 1,500 cells/well (25 μL) in 384-well white/opaque plates. 50 μL of 2× compound were added in the 96 well plate or 25 μL of 2× compound were added in the 384 well plate. The plates were incubated at 37° C. in a humidified 5% CO2 atmosphere for 4 days. After incubation, Bright-Glo reagent (50 μL for 96-well plate, or 25 μL for 384-well plate) was added to measure the firefly luciferase reporter for HCV replication. Percent inhibition was calculated against the no drug control.

[5] = Thermodynamic aqueous solubility; assay type: physicochemical; conditions: for pH of Unfiltered mixture: aqueous suspension after 24 hours at 25° C.; for solubility at 24 h / Solubility: water; for solubility at 24 h: 25 °C, thermodynamic from solid, summary of batch characterization (Table 16), read-out: Aq Solubility; for Solubility: equilibrated at 25° C. for 24 hours, HPLC quantitation
Protocol: Aqueous solubility was determined by suspending a sufficient amount of compound in water to give a maximum final concentration of >10 mg·ml^−1 of the parent free-form of the compound. The suspension was equilibrated at 25° C. for 24 hours then the pH was measured. The suspension was then filtered through a glass fiber C filter into a 96 well plate. The filtrate was then diluted by a factor of 101. Quantitation was by HPLC with reference to a standard solution of approximately 0.1 mg·ml^−1 in DMSO. Different volumes of the standard, diluted and undiluted sample solutions were injected. The solubility was calculated using the peak areas determined by integration of the peak found at the same retention time as the principal peak in the standard injection.
Analysis was performed under the above-noted conditions on an Agilent HP1100 series system equipped with a diode array detector and using ChemStation software vB.02.01-SR1.

[6] = summary of batch characterization (Table 16)

Row | Compound | stable in a sealed container [1] | hygroscopicity by GVS analysis [2] | reversible uptake of water ([2]; from 0 to 90% relative humidity) | activity against hepatitis C virus, genotypes 1-4 (broad genotype coverage) [3] | change in solid form by XRPD after storage ([4]; 40° C. and 75% relative humidity for one week) | 40° C./75% RH (stability summary) [4, 6] | HCV Replicon Activity (HCV replication) [µM] | pH of Unfiltered mixture [5] | solubility at 24 h [5] [µg/mL] | Solubility [5] [mg. m1^−1] | visual observation (stability to elevated relative humidity) ([4]; 40° C./75% RH, t = 4.5 h) | 25° C./53% RH (stability summary) [4, 6] | time to deliquescence upon storage ([4]; 40° C. and 75% relative humidity) [h]
1 | CC(C)OC(=O)[C@H](C)N[P@](=O)(OC[C@H]1O[C@@H](n2ccc(=O)[nH]c2=O)[C@](C)(F)[C@@H]1O)Oc1ccccc1 [Form 1] | at least 2 years |  |  |  |  |  |  |  |  |  |  |  | 
2 | CC(C)OC(=O)[C@H](C)N[P@@](=O)(OC[C@H]1O[C@@H](n2ccc(=O)[nH]c2=O)[C@](C)(F)[C@@H]1O)Oc1ccccc1 (single isomer, unassigned) [RP-4] |  | non-hygroscopic | approximately 0.2 wt % | active | no change in solid form was observed | No form change | 2.87 | 7.12 | 1580 (≈ 2.98 mM) | 1.58 |  |  | 
3 | CC(C)OC(=O)[C@H](C)N[P@](=O)(OC[C@H]1O[C@@H](n2ccc(=O)[nH]c2=O)[C@](C)(F)[C@@H]1O)Oc1ccccc1 [SP-4, (S)-Isopropyl 2-((S)-(((2R,3R,4R,5R)-5-(2,4-dioxo-3,4-dihydropyrimidin-1(2H)-yl)-4-fluoro-3-hydroxy-4-methyltetrahydrofuran-2-yl)methoxy)(phenoxy)phosphorylamino)propanoate] |  |  |  | active |  |  | 0.13 |  | 5650 (≈ 10.7 mM) | 5.65 | Deliquescence | No form change | 
4 | CC(C)OC(=O)[C@H](C)NP(=O)(OC[C@H]1O[C@@H](n2ccc(=O)[nH]c2=O)[C@](C)(F)[C@@H]1O)Oc1ccccc1 (stereo partly drawn) [Compound 4, (S)-2-{[(1R,4R,5R)-5-(2,4-Dioxo-3,4-dihydro-2H-pyrimidin-1-yl)-4-(R)-fluoro-3-hydroxy-4-methyl-tetrahydro-furan-2-ylmethoxy]-phenoxy-phosphorylamino}-propionic acid isopropyl ester] |  |  |  |  |  |  | 0.58 | 7.03 | 6110 (≈ 11.5 mM) | 6.11 |  | Deliquescence | ≤ 16
